Results reported in patent publication US12577227B2, “WDR5 inhibitors and modulators” (Vanderbilt University, priority 2019, dated 2026).

System: MV4:11 human cancer cell lines
Experiment: Cellular viability / anti-proliferative activity (CellTiter-Glo)
Type: cell-based
Conditions: MV4-11, 120 h, MV-4-11 cells, 5 day protocol, mean of minimum two replicates, read-out: GI50 on cellular proliferation of MV4:11 human cancer cell lines
Description: Cellular Viability of Human Tumor Cell Lines
Anti-Proliferative Activity Using MLL-Harboring Cell Lines.
MV-4-11 and K562 cells are grown in IMDM media supplemented with 10% FBS and […], Molm-13 cells are cultured in RPMI-1640 media supplemented with 10% FBS and 1% o penicillin/streptomycin. Viability assays are performed by dispensing 200 cells at 7200 cells/mL into each well of an opaque 384-well plate and adding compounds at the indicated concentrations in a final volume of 32 μL and a final concentration of DMSO of 0.3% for all samples. A certain range of compound concentrations is made through a series of 2-fold dilutions starting 30 μM at the highest, total 22 dilutions. After a set incubation period, 5 day protocol, the viability of cells in each well is assessed using the CellTiter-Glo assay (Promega), read on a 96 Microplane Luminometer (Cytation 3, BioTek). Serial dilutions of each cell type are performed in all assays to generate standard curves and the final densities of cells are determined within the dynamic range of the instrument. GI50 values are calculated based on XLfit software (IDBS, Guildford, UK) with Sigmoidal Dose-Response Model. Each compound is tested in minimum of two replicates. Data are expressed as mean.

First: COc1cc(Cn2cnc3c(-c4cn(C)nc4C(F)(F)F)cc(Cn4ccn(C)c4=N)cc3c2=O)cc(OC)c1 [Example 20, 3-(3,5-Dimethoxybenzyl)-6-((2-imino-3-methyl-2,3-dihydro-1H-imidazol-1-yl)methyl)-8-(1-methyl-3-(trifluoromethyl)-1H-pyrazol-4-yl)quinazolin-4(3H)-one]
Second: COc1cc(CN2CCOc3c(cc(Cn4ccn(C)c4=N)cc3-c3cn(C)nc3C(F)(F)F)C2=O)cc(OC)c1 [Example 16, 4-(3,5-Dimethoxybenzyl)-7-((2-imino-3-methyl-2,3-dihydro-1H-imidazol-1-yl)methyl)-9-(1-methyl-3-(trifluoromethyl)-1H-pyrazol-4-yl)-3,4-dihydrobenzo[f][1,4]oxazepin-5(2H)-one]
The GI50 of the first is 8-fold higher: 630 nM for the first, 79 nM for the second.

Compared with Cc1cc(C)nc(CN2CCOc3c(cc(Cn4ccnc4C)cc3-c3cccnc3C)C2=O)c1 [Example 44, 4-((4,6-Dimethylpyridin-2-yl)methyl)-7-((2-methyl-1H-imidazol-1-yl)methyl)-9-(2-methylpyridin-3-yl)-3,4-dihydrobenzo[f][1,4]oxazepin-5(2H)-one], Cc1cc(C)nc(CN2CCOc3c(cc(Cn4ccnc4C)cc3-c3cccnc3C(F)(F)F)C2=O)c1 [Example 42, 4-((4,6-Dimethylpyridin-2-yl)methyl)-7-((2-methyl-1H-imidazol-1-yl)methyl)-9-(2-(trifluoromethyl)pyridin-3-yl)-3,4-dihydrobenzo[f][1,4]oxazepin-5(2H)-one] is 1.9-fold lower in GI50: 548 nM for the first, 282 nM for the second.

COc1cc(CN2CC(C)Oc3c(cc(Cn4ccn(C)c4=N)cc3-c3ccc(F)cc3C)C2=O)cc(OC)c1 (stereo not shown) [Example 17, 4-(3,5-Dimethoxybenzyl)-9-(4-fluoro-2-methylphenyl)-7-((2-imino-3-methyl-2,3-dihydro-1H-imidazol-1-yl)methyl)-2-methyl-3,4-dihydrobenzo[f][1,4]oxazepin-5(2H)-one] and COc1cc(CN2CCOc3c(cc(Cn4ccn(C)c4=N)cc3-c3ccc(F)cc3C)C2=O)cc(OC)c1 [Example 3, 4-(3,5-Dimethoxybenzyl)-9-(4-fluoro-2-methylphenyl)-7-((2-imino-3-methyl-2,3-dihydro-1H-imidazol-1-yl)methyl)-3,4-dihydrobenzo[f][1,4]oxazepin-5(2H)-one] are within 1.5-fold of each other in GI50: 22 nM for the first, 19 nM for the second.

Compared with Cc1cc(C)nc(CN2CCOc3c(cc(Cn4ccnc4C)cc3-c3cc(Cl)ccc3C)C2=O)c1 [Example 52, 9-(5-Chloro-2-methylphenyl)-4-((4,6-dimethylpyridin-2-yl)methyl)-7-((2-methyl-1H-imidazol-1-yl)methyl)-3,4-dihydrobenzo[f][1,4]oxazepin-5(2H)-one], Cc1cc(C)nc(CN2CCOc3c(cc(Cn4ccnc4C)cc3-c3cn(C)nc3C(F)(F)F)C2=O)c1 [Example 26, 4-((4,6-Dimethylpyridin-2-yl)methyl)-7-((2-methyl-1H-imidazol-1-yl)methyl)-9-(1-methyl-3-(trifluoromethyl)-1H-pyrazol-4-yl)-3,4-dihydrobenzo[f][1,4]oxazepin-5(2H)-one] is 2.1-fold higher in GI50: 63 nM for the first, 135 nM for the second.

COc1cc(CN2CCOc3c(cc(Cn4ccoc4=N)cc3-c3ccc(F)cc3C)C2=O)cc(OC)c1 [Example 9, 4-(3,5-Dimethoxybenzyl)-9-(4-fluoro-2-methylphenyl)-7-((2-iminooxazol-3(2H)-yl)methyl)-3,4-dihydrobenzo[f][1,4]oxazepin-5(2H)-one] and COc1cc(CN2CC(=O)Nc3c(cc(Cn4ccoc4=N)cc3-c3ccc(F)cc3C)C2=O)cc(OC)c1 [Example 30, 4-(3,5-Dimethoxybenzyl)-9-(4-fluoro-2-methylphenyl)-7-((2-iminooxazol-3(2H)-yl)methyl)-3,4-dihydro-1H-benzo[e][1,4]diazepine-2,5-dione] are within 1.5-fold of each other in GI50: 259 nM for the first, 190 nM for the second.

First: CCn1cc(-c2cc(Cn3ccnc3)cc3c2OCCN([C@H](c2cc(OC)ccn2)C2CC2)C3=O)c(C(F)(F)F)n1 [Example 59, (S)-7-((1H-Imidazol-1-yl)methyl)-4-(cyclopropyl(4-methoxypyridin-2-yl)methyl)-9-(1-ethyl-3-(trifluoromethyl)-1H-pyrazol-4-yl)-3,4-dihydrobenzo[f][1,4]oxazepin-5(2H)-one]
Second: CCn1cc(-c2cc(Cn3ccnc3)cc3c2OCCN([C@H]2CCOc4ccc(OC)cc42)C3=O)c(C(F)(F)F)n1 [Example 63, (S)-7-((1H-imidazol-1-yl)methyl)-9-(1-ethyl-3-(trifluoromethyl)-1H-pyrazol-4-yl)-4-(6-methoxychroman-4-yl)-3,4-dihydrobenzo[f][1,4]oxazepin-5(2H)-one]
The GI50 of the first is 1.5-fold higher: 108 nM for the first, 70 nM for the second.

COc1cc(Cn2cnc3c(-c4ccc(F)cc4C)cc(Cn4ccoc4=N)cc3c2=O)cc(OC)c1 [Example 19, 3-(3,5-Dimethoxybenzyl)-8-(4-fluoro-2-methylphenyl)-6-((2-iminooxazol-3(2H)-yl)methyl)quinazolin-4(3H)-one] and COc1cc(Cn2cnc3c(-c4ccc(F)cc4C)cc(Cn4ccc5cccnc54)cc3c2=O)cc(OC)c1 [Example 5, 6-((1H-Pyrrolo[2,3-b]pyridin-1-yl)methyl)-3-(3,5-dimethoxybenzyl)-8-(4-fluoro-2-methylphenyl)quinazolin-4(3H)-one] cannot be ordered by GI50: 7980 nM for the first, > 940 nM for the second.

Going from CCc1cc(C(=O)NCCOC)c2nccc(N3CCOc4c(cc(Cn5ccnc5)cc4-c4cn(C)nc4C(F)(F)F)C3=O)c2c1 [Example 74, 4-(7-((1H-imidazol-1-yl)methyl)-9-(1-methyl-3-(trifluoromethyl)-1H-pyrazol-4-yl)-5-oxo-2,3-dihydrobenzo[f][1,4]oxazepin-4(5H)-yl)-6-ethyl-N-(2-methoxyethyl)quinoline-8-carboxamide] to COc1cc(OC)c2nc(C)cc(N3CCOc4c(cc(Cn5ccnc5)cc4-c4cn(C)nc4C(F)(F)F)C3=O)c2c1 [Example 69, 7-((1H-imidazol-1-yl)methyl)-4-(6,8-dimethoxy-2-methylquinolin-4-yl)-9-(1-methyl-3-(trifluoromethyl)-1H-pyrazol-4-yl)-3,4-dihydrobenzo[f][1,4]oxazepin-5(2H)-one], the GI50 falls from 458 nM to 39 nM (12-fold).

Compared with COc1cc(CN2CNc3c(cc(Cn4ccn(C)c4=N)cc3-c3ccc(F)cc3C)C2=O)cc(OC)c1 [Example 23, 3-(3,5-Dimethoxybenzyl)-8-(4-fluoro-2-methylphenyl)-6-((2-imino-3-methyl-2,3-dihydro-1H-imidazol-1-yl)methyl)-2,3-dihydroquinazolin-4(1H)-one], COc1cc(CN2CCNc3c(cc(Cn4ccn(C)c4=N)cc3-c3ccc(F)cc3C)C2=O)cc(OC)c1 [Example 29, 4-(3,5-Dimethoxybenzyl)-9-(4-fluoro-2-methylphenyl)-7-((2-imino-3-methyl-2,3-dihydro-1H-imidazol-1-yl)methyl)-1,2,3,4-tetrahydro-5H-benzo[e][1,4]diazepin-5-one] is 2.4-fold lower in GI50: 92 nM for the first, 38 nM for the second.

Compared with COc1ccnc(CN2CCOc3c(cc(Cn4ccn(C)c4=N)cc3-c3ccc(F)cc3C)C2=O)c1 [Example 13, 9-(4-Fluoro-2-methylphenyl)-7-((2-imino-3-methyl-2,3-dihydro-1H-imidazol-1-yl)methyl)-4-((4-methoxypyridin-2-yl)methyl)-3,4-dihydrobenzo[f][1,4]oxazepin-5(2H)-one], Cc1cc(C)nc(CN2CCOc3c(cc(Cn4ccn(C)c4=N)cc3-c3cn(C)nc3C(F)(F)F)C2=O)c1 [Example 22, 4-((4,6-Dimethylpyridin-2-yl)methyl)-7-((2-imino-3-methyl-2,3-dihydro-1H-imidazol-1-yl)methyl)-9-(1-methyl-3-(trifluoromethyl)-1H-pyrazol-4-yl)-3,4-dihydrobenzo[f][1,4]oxazepin-5(2H)-one] is 14-fold higher in GI50: 12 nM for the first, 173 nM for the second.

First: COc1ccnc(Cn2cnc3c(-c4cn(C)nc4C(F)(F)F)cc(Cn4ccnc4C)cc3c2=O)c1 [Example 55, 3-((4-Methoxypyridin-2-yl)methyl)-6-((2-methyl-1H-imidazol-1-yl)methyl)-8-(1-methyl-3-(trifluoromethyl)-1H-pyrazol-4-yl)quinazolin-4(3H)-one]
Second: COc1ccnc([C@H](C)N2CCOc3c(cc(Cn4ccnc4C)cc3-c3cn(C)nc3C(F)(F)F)C2=O)c1 [Example 47, (S)-4-(1-(4-Methoxypyridin-2-yl)ethyl)-7-((2-methyl-1H-imidazol-1-yl)methyl)-9-(1-methyl-3-(trifluoromethyl)-1H-pyrazol-4-yl)-3,4-dihydrobenzo[f][1,4]oxazepin-5(2H)-one]
The GI50 of the first is 18-fold higher: 570 nM for the first, 31 nM for the second.

Compared with Cc1ccnc(CN2C[C@H](C)Oc3c(cc(Cn4ccnc4C)cc3-c3cn(C)nc3C(F)(F)F)C2=O)c1 [Example 39, (S)-2-Methyl-7-((2-methyl-1H-imidazol-1-yl)methyl)-9-(1-methyl-3-(trifluoromethyl)-1H-pyrazol-4-yl)-4-((4-methylpyridin-2-yl)methyl)-3,4-dihydrobenzo[f][1,4]oxazepin-5(2H)-one], COc1ccc2c(c1)C(N1CCOc3c(cc(Cn4ccnc4C)cc3-c3cn(C)nc3C(F)(F)F)C1=O)CCC2 (stereo not shown) [Example 57, 4-(7-Methoxy-1,2,3,4-tetrahydronaphthalen-1-yl)-7-((2-methyl-1H-imidazol-1-yl)methyl)-9-(1-methyl-3-(trifluoromethyl)-1H-pyrazol-4-yl)-3,4-dihydrobenzo[f][1,4]oxazepin-5(2H)-one] is 25-fold lower in GI50: 730 nM for the first, 29 nM for the second.

COc1cc(Cn2cnc3c(-c4ccc(F)cc4C)cc(Cn4ccc5ccccc54)cc3c2=O)cc(OC)c1 [Example 4, 6-((1H-Indol-1-yl)methyl)-3-(3,5-dimethoxybenzyl)-8-(4-fluoro-2-methylphenyl)quinazolin-4(3H)-one] was tested, and the GI50 was > 940 nM.
